{"source": "patent US12280022B2", "about": "“Method of treating major depressive disorder” (Clexio Biosciences Ltd., priority 2018, dated 2025)", "key": {"[1]": {"system": "human peripheral blood lymphocytes (HPBL)", "conditions": "definitive assay; non-activated 4- and 20-hour treatment conditions; any dose", "method": "The clastogenic potential of esketamine was evaluated in the in vitro mammalian chromosome aberration test using human peripheral blood lymphocytes (HPBL) in both the absence and presence of an induced metabolic activation system (the 9000 g supernatant [S9] microsomal fraction of liver homogenate from rats exposed to Aroclor-1254).\nThe study was conducted in 2 phases, with a preliminary toxicity test used to determine the appropriate concentrations for the definitive chromosomal aberration assay. Water was used as a negative (vehicle) control. Toxicity (defined as ≥45% reduction in MI relative to the vehicle control) was evaluated at 9 concentrations, ranging from 0.0238 to 238 μg/ml, after exposure of HPBL to esketamine for 20 hours in the absence of S9 activation, or for 4 hours, either in the presence or absence of S9 activation, followed by a 16-hour recovery period.\nThe definitive chromosome aberration assay evaluated HPBL cells after exposure to esketamine for 20 hours in the absence of S9 activation, or for 4 hours, either in the presence of absence of S9 activation, followed by a 16-hour recovery. Positive controls for chromosomal aberrations in non-activated and S9-activated evaluations, respectively, consisted of mitomycin C (MMC, 0.6 and 0.3 μg/mL for the 4- and 20-hour exposures, respectively) and cyclophosphamide (CP, 2.5, 5, and 7.5 μg/mL). […]"}, "male Sprague Dawley rats": {"system": "male Sprague Dawley rats", "assay": "7-day forced swim test", "format": "in vivo", "conditions": "intraperitoneal", "method": "Groups of, 6-7 week old, male Sprague Dawley rats were administered esketamine by intraperitoneal injection and their behavioral despair assessed by a forced swim test. The animals, in cohorts of 10, were administered either a single dose of 15 mg/kg esketamine, 7 daily doses of either 7.5 or 15 mg/kg esketamine or a vehicle control, and the test performed 30 minutes after dosing. Statistical evaluation was performed using an ordinary One-Way ANOVA, t Test and an Uncorrected Fisher's LSD comparisons test."}, "[2]": {"system": "healthy male and female subjects", "assay": "Single dose crossover study in healthy volunteers: treatment-emergent adverse events", "format": "in vivo, human", "text": "A total of 128 TEAEs (treatment-emergent adverse event) were reported by 15 of 16 (94%) subjects of which 79 TEAEs reported by 14 of 16 (88%) subjects were to be related to the study drug. Overall, a total of 14 of 128 TEAEs reported by 4 (25%) subjects were of moderate severity and 114 of 128 TEAEs reported by 15 (94%) subjects were of mild severity. […] The most frequently occurring adverse events (reported more than twice) were headache, dizziness, hypokinesia, feeling abnormal, fatigue, euphoric mood inappropriate affect, nausea and hyperhidrosis. Table 4 presents the frequency of the most frequently reported related TEAEs as a percentage of the subjects that experienced an adverse effect per treatment."}, "liver of Crl:CD(SD) rats": {"system": "liver of Crl:CD(SD) rats", "assay": "In vivo single cell gel electrophoresis (comet) assay in liver", "conditions": "male and female rats; oral gavage"}, "[3]": {"system": "animal models of depression", "conditions": "without psychotomimetic side effects and abuse liability; cited from earlier work"}}}
{"smiles": "CN[C@]1(c2ccccc2Cl)CCCCC1=O", "note": "[esketamine, (2S)-2-(2-Chlorophenyl)-2-(methylamino)cyclohexanone]", "values": [{"measurement": "cytotoxicity (≥45% reduction in mitotic index relative to the vehicle control)", "setting": "[1]", "value": "not observed"}, {"measurement": "antidepressant-like effect of continuous 7-day treatment vs single acute dose at the same dose levels", "setting": "male Sprague Dawley rats", "value": "stronger antidepressant-like effect"}, {"measurement": "Dizziness, related TEAE, subjects", "setting": "[2]; 0.3 mg/kg iv", "value": 6, "unit": "%"}, {"measurement": "Euphoric mood, related TEAE, subjects", "setting": "[2]; 0.3 mg/kg iv", "value": 19, "unit": "%"}, {"measurement": "Fatigue, related TEAE, subjects", "setting": "[2]; 0.3 mg/kg iv", "value": 6, "unit": "%"}, {"measurement": "Feeling abnormal, related TEAE, subjects", "setting": "[2]; 0.3 mg/kg iv", "value": 13, "unit": "%"}, {"measurement": "Headache, related TEAE, subjects", "setting": "[2]; 0.3 mg/kg iv", "value": 19, "unit": "%"}, {"measurement": "Hypokinesia, related TEAE, subjects", "setting": "[2]; 0.3 mg/kg iv", "value": 6, "unit": "%"}, {"measurement": "Inappropriate affect, related TEAE, subjects", "setting": "[2]; 0.3 mg/kg iv", "value": 6, "unit": "%"}, {"measurement": "Nausea, related TEAE, subjects", "setting": "[2]; 0.3 mg/kg iv", "value": 6, "unit": "%"}, {"measurement": "Feeling abnormal, related TEAE, subjects", "setting": "[2]; 20 mg oral solution", "value": 19, "unit": "%"}, {"measurement": "Headache, related TEAE, subjects", "setting": "[2]; 20 mg oral solution", "value": 19, "unit": "%"}, {"measurement": "Inappropriate affect, related TEAE, subjects", "setting": "[2]; 20 mg oral solution", "value": 6, "unit": "%"}, {"measurement": "Dizziness, related TEAE, subjects", "setting": "[2]; 20 mg oral tablet", "value": 13, "unit": "%"}, {"measurement": "Fatigue, related TEAE, subjects", "setting": "[2]; 20 mg oral tablet", "value": 7, "unit": "%"}, {"measurement": "Feeling abnormal, related TEAE, subjects", "setting": "[2]; 20 mg oral tablet", "value": 7, "unit": "%"}, {"measurement": "Hyperhidrosis, related TEAE, subjects", "setting": "[2]; 20 mg oral tablet", "value": 7, "unit": "%"}, {"measurement": "Dizziness, related TEAE, subjects", "setting": "[2]; 100 mg oral tablet", "value": 13, "unit": "%"}, {"measurement": "Euphoric mood, related TEAE, subjects", "setting": "[2]; 100 mg oral tablet", "value": 13, "unit": "%"}, {"measurement": "Feeling abnormal, related TEAE, subjects", "setting": "[2]; 100 mg oral tablet", "value": 20, "unit": "%"}, {"measurement": "Headache, related TEAE, subjects", "setting": "[2]; 100 mg oral tablet", "value": 13, "unit": "%"}, {"measurement": "Hyperhidrosis, related TEAE, subjects", "setting": "[2]; 100 mg oral tablet", "value": 7, "unit": "%"}, {"measurement": "Hypokinesia, related TEAE, subjects", "setting": "[2]; 100 mg oral tablet", "value": 13, "unit": "%"}, {"measurement": "Inappropriate affect, related TEAE, subjects", "setting": "[2]; 100 mg oral tablet", "value": 7, "unit": "%"}, {"measurement": "Nausea, related TEAE, subjects", "setting": "[2]; 100 mg oral tablet", "value": 20, "unit": "%"}, {"measurement": "AE leading to withdrawal from the study", "setting": "[2]; one subject (Subject 11) of 16, after first treatment period", "value": "mild hyperbilirubinemia"}, {"measurement": "DNA strand breaks in the liver", "setting": "liver of Crl:CD(SD) rats", "value": "evidence of causing an increase in DNA strand breaks"}]}
{"smiles": "CN[C@@]1(c2ccccc2Cl)CCCCC1=O", "note": "[(R)-ketamine, (2R)-2-(2-Chlorophenyl)-2-(methylamino)cyclohexanone]", "values": [{"measurement": "antidepressant effects compared with esketamine", "setting": "[3]", "value": "greater potency and longer-lasting antidepressant effects"}]}
